Legend:
[1] = LD50 i.p. in mice; conditions: mouse, in vivo, ip
[2] = system: carrageenin oedema; assay: Antiinflammatory action (rats), carrageenin oedema; assay type: in vivo; conditions: for inhibition of carrageenin oedema: 200 mg/kg (p.o.); for inhibition (carrageenin): rats, 100 mg/kg p.o.
Procedure: Antiinflammatory action (Rats): Dose: 100 mg/kg p.o.
(ii) It produces 30% inhibition when given 1/2 hour before the injection of carrageenin.
Effect on carrageenin oedema at 200 mg/kg (p.o.)
(i) 60% inhibition when given 1 hour before the injection of carrageenin.
(iii) 62% of inhibition when given 1/2 hour after the injection of carrageenin.
Antiinflammatory action (Rats)
Effect on carrageenin oedema at 200 mg/kg

[3] = Anti-inflammatory activity in a battery of tests (summary statement); assay type: in vivo
[4] = Ulcerogenic properties; assay type: in vivo; conditions: 100 mg/kg daily orally for 7 days
[5] = system: cotton pellet granuloma; assay: Cotton pellet granuloma; assay type: in vivo; conditions: 100 mg/kg orally daily for 7 days
[6] = system: formaldehyde induced arthritis; assay: Formaldehyde arthritis; assay type: in vivo; conditions: 100 mg/kg orally daily for 10 days
[7] = system: capillary permeability; conditions: at 100 mg
[8] = 1/2 hour after injection of carrageenin
[9] = 1/2 hour before injection of carrageenin

O=C(COC(=O)c1ccccc1NCCc1ccccc1)c1ccccc1 [2-N-β-phenethyl phenacyl anthranilate, 2-N-β-phenethyl-phenacyl anthranilate]
LD50 [1]: > 800 mg/kg | inhibition of carrageenin oedema [2, 8]: 62% | inhibition of carrageenin oedema [2, 9]: 43% | inhibition of carrageenin oedema ([2]; 1 hour before injection of carrageenin): 60% | inhibition (carrageenin) [2, 8]: 43% | inhibition (carrageenin) [2, 9]: 30% | inhibition (carrageenin) ([2]; one hour before injection of carrageenin): 44.5% | anti-inflammatory activity [3]: potent anti-inflammatory activity | ulcerogenic activity [4]: does not show any ulcerogenic activity | inhibition of cotton pellet granuloma [5]: 31% | inhibition of formaldehyde induced arthritis [6]: 14% | inhibition (mouse capillary permeability) [7]: 52%
